Laboratory results taken from patent publication US20140220081A1, “USE OF A GALACTOSE-DERIVED C-GLYCOSIDE COMPOUND AS AN AGENT FOR ACTIVATING AND REGULATING CUTANEOUS IMMUNITY” (L'OREAL, priority 2006, published 2014).

Test system: human peripheral blood cells
Test: Immunostimulant activity: human lymphocyte proliferation revealed by BrdU labelling
Type: cell-based
Details: for % stimulation relative to the control: 3 days of culture, BrdU labelling
Procedure: The immunostimulant activity is tested in the following way: human peripheral blood cells are cultured in the presence of an RPMI-type culture medium supplemented with L-glutamine (2 mM), penicillin/streptomycin (50 μg/50 IU/ml) and foetal calf serum (10%). The C-glycoside derivatives are added at various concentrations (10 to 0.05 mM), as is phyto-haemagglutinin (PHA at 5 […]), a positive control for lymphocyte proliferation.

## CC(=O)C[C@@H]1O[C@H](CO)[C@H](O)[C@H](O)[C@H]1O [Compound 1, 1-(C-β-galactopyranosyl)propan-2-one]
0.05 mM
  % stimulation relative to the control: 91%
0.1 mM
  % stimulation relative to the control: 89%
0.5 mM
  % stimulation relative to the control: 130%
1 mM
  % stimulation relative to the control: 138%
5 mM
  % stimulation relative to the control: 261%
10 mM
  % stimulation relative to the control: 271%
All the concentrations tested (10 to 0.05 mM)
  human lymphocyte proliferation (result in words): tendency to stimulate human lymphocyte proliferation at all the concentrations tested
